# Experimental data taken from US12123059B2, “Predicting cardiotoxicity risk in cancer patients receiving anthracyclines chemotherapy” (Fundación Para La Investigación Del Hospital Universitario …, priority 2018, dated 2024).
# Test system: human cardiomyocytes
# Assay: Modulation of miRNA copy number by Doxorubicin in human cardiomyocytes in culture
# Type: cell-based
# Details: Doxorubicin 1 μM for 24 h, FIG. 4
# Experimental: FIG. 4. (A, B) Graphics showing modulation of miRNAs by Doxorubicin in human cardiomyocytes and patients' serum. Left panels show copy number of indicated miRNAs in cardiomyocytes in culture before or after the addition of Doxorubicin (1 μM) for 24 h. Right panels show copy numbers of indicated miRNAs as detected by RNAseq in serum from control patients and cases and expressed as mean±SEM (N=10 in each case) before or after completion of anthracycline chemotherapy. Only miRNAs showing a similar tendency in cells and patients' serum are illustrated. *P<0.05.
# The specific signature of miRNAs has been detected in serum. Since the pathways related to miRNAs are linked to cardiomyocytes, the copy number of the miRNAs of interest in human cardiomyocytes was also measured. As observed in FIG. 4, the miRNAs previously detected in serum were also present in human cardiomyocytes (left panels) and their expression level is altered when cells are damaged by Doxorubicin. […] As shown in the right panel of FIG. 4, the copy number of miRNA-22-3p increases both in cells and serum of patients after anthracycline treatment whereas miRNA-30b, miRNA-148a, miRNA-150-5p, and miRNA-4732-3p decrease their expression levels. […] Indeed, this set of miRNAs regulates genes involved in the aforementioned biological pathways (FIG. 5)
smiles,measurement,value
COc1cccc2c1C(=O)c1c(O)c3c(c(O)c1C2=O)C[C@@](O)(C(=O)CO)C[C@@H]3O[C@H]1C[C@H](N)[C@H](O)[C@H](C)O1 [Doxorubicin],copy number of miRNA-22-3p,increases
same,expression level of miRNA-30b,decrease
same,expression level of miRNA-148a,decrease
same,expression level of miRNA-150-5p,decrease
same,expression level of miRNA-4732-3p,decrease
